Results taken from patent US20110028458A1, “INHIBITION OF CELL MIGRATION BY A FARNESYLATED DIBENZODIAZEPINONE” (THALLION PHARMACEUTICALS INC., priority 2008, published 2011).

Columns and labels:
[1] = system: central benzodiazepine receptor (CBR; GABAA); test: CBR (GABAA) radioligand binding assay, [3H]flunitrazepam, rat brain; conditions: 10 μM
From the text: (§1) The procedures used were based on known assays: ACAT (from rat; Ref: Largis et al (1989), J. Lipid. Res., vol 30, 681-689), COX-2 (human; Ref: Riendeau et al (1997), Can. J. Physiol. Pharmacol., vol 75, 1088-1095 and Warner et al (1999), Pro. Natl. Acad Sci. USA, vol 96, 7563-7568), 5-LO (human; Ref: Carter et al (1991), J. Pharmacol. Exp. Ther., vol 256, no 3, 929-937, and Safayhi et al (2000), Planta Medica, vol 66, 110-113), PBR (from rat; Le Fur et al (1983), Life Sci. USA, vol 33, 449-457), CysLT1 (human; Martin et al (2001), Biochem. Pharmacol., vol 62, no 9, 1193-1200) and CBR (from rat; Damm et al (1978), Res. Comm. Chem. Pathol. Pharmacol., vol 22, 597-600 and Speth et al (1979), Life Sci., vol 24, 351-357).
(§2) Binding Assays were done at constant concentration of the compound, in 1% DMSO as vehicle, and are specified below each enzyme/receptor type in Table 3. Significance was obtained when a result was ≧50% binding or inhibition (underlined).
As Compound 1 was isolated from structural prediction through genetic analysis and activity identified through in vitro cytotoxic assays, its molecular target(s) were unknown at the time of discovery. Based on the structural characteristics of TLN-4601, we first investigated its binding affinity to the central (GABAA; CBR;) and peripheral (PBR) benzodiazepine receptors. The effect of TLN-4601 on CBR (GABAA) and PBR was initially evaluated in a radioligand-binding assay at MDS Pharma Services (Taipei, Tawain). CBR and PBR were obtained from rat brain and heart membrane-fractions, respectively. Displacement assays were done in the presence of 1 nM [^3H]-Flunitrazepam (CBR; GABAA) or 0.3 nM of [^3H]-PK11195 (PBR). TLN-4601 was tested at 0.01, 0.1, 0.5, 1, 5 and 10 μM. Non-specific binding was estimated in the presence of 10 μM diazepam (CBR) or 100 μM dipyrimadole (PBR) and assays were performed according to previous described methods (Damm et al Res Commun Chem Pathol Pharmacol 22, pp 597-600; Le Fur et al (1983) Life Science 33, pp 449-57). […] This contrats with current specific PBR ligands, which bind the PBR with nanomolar affinity yet their effect on cell proliferation, is in the micromolar range.

ACAT = ACAT enzyme assay, [14C]cholesterol ester quantitation; assay type: biochemical, rat; conditions: 10 μM
From the text: as §1
Binding assays were done for each of Compounds 1-12 and 46 using ACAT, COX-2, 5-LO, PBR and CysLT1 enzymes. The procedures used are based on the respective references mentioned above and the conditions are summarized in Tables 1 (enzyme assays) and 2 (radioligand receptor assays).
as §2

SRBC = test: Hemolysis of SRBC; assay type: cell-based
[2] = system: HT-29 (colorectal carcinoma); test: In vitro cytotoxic activity, propidium iodide, HT-29; assay type: cell-based, human
[3] = system: MDA-MB-231 (mammary gland adenocarcinoma); test: In vitro cytotoxic activity, propidium iodide, MDA-MB-231; assay type: cell-based, human; conditions: 96 hrs
[4] = system: PC-3 (prostate adenocarcinoma); test: In vitro cytotoxic activity, propidium iodide, PC-3; assay type: cell-based, human; conditions: 96 hrs
SF268 (CNS) = test: In vitro cytotoxic activity, propidium iodide, SF-268; assay type: cell-based, human; conditions: 96 hrs

| Percentage of inhibition or binding activity, CBR [1] | Percentage of inhibition or binding activity, ACAT (ACAT) | SMILES | Hemolysis ED50 (concentration necessary to achieve 50% hemolysis of SRBC) (SRBC) | GI50 ([2]; Homo sapiens, HT-29, 96 h) | GI50 ([2]; 96 hrs) | GI50 [3] | GI50 [4] | GI50 (SF268 (CNS)) |
| --- | --- | --- | --- | --- | --- | --- | --- | --- |
| 22% | 51% | CC(C)=CCC/C(C)=C/CC/C(C)=C/CN1C(=O)c2cccc(O)c2N(C)c2c(O)cc(O)cc21 [Compound 2] | 5.12 µg/mL | – | – | – | – | – |
| 10% | 63% | CC(C)=CCC/C(C)=C/CC/C(C)=C/CN1C(=O)c2cccc(O)c2N(Cc2ccccc2)c2c(O)cc(O)cc21 [Compound 3] | >64 µg/mL | – | – | – | – | – |
| 12% | – | COc1cccc2c1Nc1c(O)cc(O)cc1N(C/C=C(\C)CC/C=C(\C)CCC=C(C)C)C2=O [Compound 4] | >64 µg/mL | – | – | – | – | – |
| 21% | 60% | COc1cc(O)cc2c1Nc1c(O)cccc1C(=O)N2C/C=C(\C)CC/C=C(\C)CCC=C(C)C [Compound 5] | >64 µg/mL | – | – | – | – | – |
| 14% | – | COc1cc(OC)c2c(c1)N(C/C=C(\C)CC/C=C(\C)CCC=C(C)C)C(=O)c1cccc(O)c1N2 [Compound 6] | >64 µg/mL | > 30000 nM | – | – | – | – |
| 21% | 95% | COc1cccc2c1Nc1c(OC)cc(O)cc1N(CC=C(C)CCC=C(C)CCC=C(C)C)C2=O [Compound 7] | >64 µg/mL | – | 14100 nM | 17400 nM | 14600 nM | 18500 nM |
| 1% | 40% | COc1cc(OC)c2c(c1)N(CC=C(C)CCC=C(C)CCC=C(C)C)C(=O)c1cccc(OC)c1N2 [Compound 8] | – | – | – | – | – | – |
| 10% | 77% | CC(=O)Oc1cc(OC(C)=O)c2c(c1)N(CC=C(C)CCC=C(C)CCC=C(C)C)C(=O)c1cccc(O)c1N2 [Compound 9] | >64 µg/mL | – | 12600 nM | 2480 nM | 1440 nM | 1880 nM |
| 5% | 90% | CC(=O)Oc1cccc2c1Nc1c(OC(C)=O)cc(O)cc1N(CC=C(C)CCC=C(C)CCC=C(C)C)C2=O [Compound 10] | >64 µg/mL | – | 13000 nM | 1550 nM | 1350 nM | 2020 nM |
| 20% | 71% | CC(=O)Oc1cc(O)c2c(c1)N(CC=C(C)CCC=C(C)CCC=C(C)C)C(=O)c1cccc(OC(C)=O)c1N2 [Compound 11] | 9.8 µg/mL | – | 16000 nM | 7720 nM | 5350 nM | 5790 nM |
| −24% | 83% | CC(=O)Oc1cc(OC(C)=O)c2c(c1)N(CC=C(C)CCC=C(C)CCC=C(C)C)C(=O)c1cccc(OC(C)=O)c1N2 [Compound 12] | >64 µg/mL | – | 9330 nM | 2790 nM | 1200 nM | 1950 nM |
| – | – | CCN1c2c(O)cccc2C(=O)N(C/C=C(\C)CC/C=C(\C)CCC=C(C)C)c2cc(O)cc(O)c21 [Compound 14] | 43.9 µg/mL | – | 2040 nM | 2160 nM | 1150 nM | 760 nM |
| – | – | CC(C)=CCCC1(C)OC1CC/C(C)=C/CN1C(=O)c2cccc(O)c2Nc2c(O)cc(O)cc21 (stereo not drawn) [Compound 17] | 35.0 µg/mL | – | > 30000 nM | > 30000 nM | 18700 nM | 13400 nM |
| – | – | C/C(=C\CN1C(=O)c2cccc(O)c2Nc2c(O)cc(O)cc21)CC/C=C(\C)CCC1OC1(C)C (stereo not drawn) [Compound 18] | >64 µg/mL | – | > 30000 nM | > 30000 nM | > 30000 nM | 7450 nM |
| 27% | 8% | CC(C)CCCC(C)CCCC(C)CCN1C(=O)c2cccc(O)c2Nc2c(O)cc(O)cc21 (stereo not drawn) [Compound 46] | 13.9 µg/mL | – | – | – | – | – |
| – | – | CCCN1c2c(O)cccc2C(=O)N(C/C=C(\C)CC/C=C(\C)CCC=C(C)C)c2cc(O)cc(O)c21 [Compound 63] | >64 µg/mL | – | – | – | – | – |
| – | – | CCCCN1c2c(O)cccc2C(=O)N(C/C=C(\C)CC/C=C(\C)CCC=C(C)C)c2cc(O)cc(O)c21 [Compound 64] | >64 µg/mL | – | – | – | – | – |
| – | – | CCCCCCN1c2c(O)cccc2C(=O)N(C/C=C(\C)CC/C=C(\C)CCC=C(C)C)c2cc(O)cc(O)c21 [Compound 67] | >64 µg/mL | – | – | – | – | – |
| – | – | CCC(C)N1c2c(O)cccc2C(=O)N(C/C=C(\C)CC/C=C(\C)CCC=C(C)C)c2cc(O)cc(O)c21 (stereo not drawn) [Compound 77] | 60.9 µg/mL | – | – | – | – | – |
| – | – | CC(C)CCCC(C)CCCC(C)CCN1C(=O)c2cccc(O)c2N(C)c2c(O)cc(O)cc21 (stereo not drawn) [Compound 78] | 9.89 µg/mL | – | – | – | – | – |
| – | – | COC(C)(CCC=C(C)C)CCC/C(C)=C/CN1C(=O)c2cccc(O)c2N(C)c2c(O)cc(O)cc21 (stereo not drawn) [Compound 80] | >64 µg/mL | – | – | – | – | – |
| – | – | COC(C)(C)CCC/C(C)=C/CC/C(C)=C/CN1C(=O)c2cccc(O)c2Nc2c(O)cc(O)cc21 [Compound 82] | >64 µg/mL | – | – | – | – | – |
| – | – | COC(C)(CCC=C(C)C)CCC/C(C)=C/CN1C(=O)c2cccc(O)c2Nc2c(O)cc(O)cc21 (stereo not drawn) [Compound 83] | 12.4 µg/mL | – | – | – | – | – |
| – | – | COC(C)(C)CCCC(C)(CCC/C(C)=C/CN1C(=O)c2cccc(O)c2Nc2c(O)cc(O)cc21)OC (stereo not drawn) [Compound 84] | >32 µg/mL | – | – | – | – | – |
| – | – | CCN1c2c(O)cccc2C(=O)N(C/C=C(\C)CC/C=C(\C)CCCC(C)(C)OC)c2cc(O)cc(O)c21 [Compound 85] | >64 µg/mL | – | – | – | – | – |
| – | – | CCN1c2c(O)cccc2C(=O)N(CC=C(C)CCCC(C)(CCCC(C)(C)OC)OC)c2cc(O)cc(O)c21 (stereo not drawn) [Compound 87] | >64 µg/mL | – | 1830 nM | 2400 nM | 1390 nM | 910 nM |
| – | – | CC(C)=CCCC(C)(O)CCC/C(C)=C/CN1C(=O)c2cccc(O)c2Nc2c(O)cc(O)cc21 (stereo not drawn) [Compound 89] | >64 µg/mL | > 30000 nM | – | – | – | – |
| – | – | CC(=O)NC(C)(CCC=C(C)C)CCC/C(C)=C/CN1C(=O)c2cccc(O)c2Nc2c(O)cc(O)cc21 (stereo not drawn) [Compound 92] | >64 µg/mL | > 30000 nM | – | – | – | – |
| – | – | CC(C)=CCC/C(C)=C/CC/C(C)=C/CN1C(=O)c2cccc(O)c2N(C)c2c(O)cc(O)cc21 [Compound 98] | – | – | 690 nM | 510 nM | 820 nM | 160 nM |
| – | – | [2H]C([2H])([2H])N1c2c(O)cccc2C(=O)N(C/C=C(\C)CC/C=C(\C)CCC=C(C)C)c2cc(O)cc(O)c21 [Compound 98] | 4.5 µg/mL | – | – | – | – | – |
